Among the data in US20260285855A1, “HETEROARYL DERIVATIVES AS DDRS INHIBITORS” (CHIESI FARMACEUTICI S.P.A., priority 2023, published 2026) are Ki values, retold here.

The target of one test is T1, DDR2 (Homo sapiens, UniProt Q16832).
T1 construct: purchased Life Technologies
T1 sequence (Q16832 22-855): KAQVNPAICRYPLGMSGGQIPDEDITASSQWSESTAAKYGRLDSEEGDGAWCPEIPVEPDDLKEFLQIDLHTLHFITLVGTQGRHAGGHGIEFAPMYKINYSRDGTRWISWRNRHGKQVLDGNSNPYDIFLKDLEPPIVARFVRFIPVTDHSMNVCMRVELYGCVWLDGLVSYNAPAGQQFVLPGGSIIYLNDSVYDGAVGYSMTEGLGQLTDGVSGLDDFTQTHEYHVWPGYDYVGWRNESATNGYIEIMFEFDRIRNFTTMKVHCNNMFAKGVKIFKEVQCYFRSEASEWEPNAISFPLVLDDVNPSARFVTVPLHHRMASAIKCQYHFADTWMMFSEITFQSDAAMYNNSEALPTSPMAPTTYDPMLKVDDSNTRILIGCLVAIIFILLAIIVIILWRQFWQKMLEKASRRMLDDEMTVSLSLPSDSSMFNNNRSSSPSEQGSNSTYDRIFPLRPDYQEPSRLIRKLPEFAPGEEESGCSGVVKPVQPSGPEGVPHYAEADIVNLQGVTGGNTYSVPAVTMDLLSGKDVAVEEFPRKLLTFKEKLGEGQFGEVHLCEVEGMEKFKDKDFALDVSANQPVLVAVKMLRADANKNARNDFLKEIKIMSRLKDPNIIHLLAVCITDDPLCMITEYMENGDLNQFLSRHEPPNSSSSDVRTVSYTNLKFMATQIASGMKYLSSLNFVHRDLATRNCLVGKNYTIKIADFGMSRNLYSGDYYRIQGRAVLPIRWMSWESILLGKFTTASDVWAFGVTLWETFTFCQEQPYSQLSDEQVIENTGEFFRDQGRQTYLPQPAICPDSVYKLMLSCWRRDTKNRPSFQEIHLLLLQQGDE
Put plainly: LanthaScreen Europium Kinase Binding assay, DDR2. To be noted: 5 nM DDR2, 10 nM Kinase Tracer 178, 1 h at rt; Ki from IC50 by Cheng-Prusoff; read-out: Ki DDR2. Here is the method:
(§1) DDR1 and DDR2 binding assays were performed using Life Technologies LanthaScreen™ Europium Kinase Binding assay. […] IC50 values were determined in GraphPad Prism 7.0 software, using 4 parameter model: log (inhibitor) vs. response. IC50 values were converted in Ki using the Cheng-Prusoff equation (Ki-IC50/(1+ [Tracer]/Kd).

The target in the next test is T2, DDR1 (Homo sapiens, UniProt Q08345).
T2 construct: purchased Carna Biosciences
T2 sequence (Q08345 19-913): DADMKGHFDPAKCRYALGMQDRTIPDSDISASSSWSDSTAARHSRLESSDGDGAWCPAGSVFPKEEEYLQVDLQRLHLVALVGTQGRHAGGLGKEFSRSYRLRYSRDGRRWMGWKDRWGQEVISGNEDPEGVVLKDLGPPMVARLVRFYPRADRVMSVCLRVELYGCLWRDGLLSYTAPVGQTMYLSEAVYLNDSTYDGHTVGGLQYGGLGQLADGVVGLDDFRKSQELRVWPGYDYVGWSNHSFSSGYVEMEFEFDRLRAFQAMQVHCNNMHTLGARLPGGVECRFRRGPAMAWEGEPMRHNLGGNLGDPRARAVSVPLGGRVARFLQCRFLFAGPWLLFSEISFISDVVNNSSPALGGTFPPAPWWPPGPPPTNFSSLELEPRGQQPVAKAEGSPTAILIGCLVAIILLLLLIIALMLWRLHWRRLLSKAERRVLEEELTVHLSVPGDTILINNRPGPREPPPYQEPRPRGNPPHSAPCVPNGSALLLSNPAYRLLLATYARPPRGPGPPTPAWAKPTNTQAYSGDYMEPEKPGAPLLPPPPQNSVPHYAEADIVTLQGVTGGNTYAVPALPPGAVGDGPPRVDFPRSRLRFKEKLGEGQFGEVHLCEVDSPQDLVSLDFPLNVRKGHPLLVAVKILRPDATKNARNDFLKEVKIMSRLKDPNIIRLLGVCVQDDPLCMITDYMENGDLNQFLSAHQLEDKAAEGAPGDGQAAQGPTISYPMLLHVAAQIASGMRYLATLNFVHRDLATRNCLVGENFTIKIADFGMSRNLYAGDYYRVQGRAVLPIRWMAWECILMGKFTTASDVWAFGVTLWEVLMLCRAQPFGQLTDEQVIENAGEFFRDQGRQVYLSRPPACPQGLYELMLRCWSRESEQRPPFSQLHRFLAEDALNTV
In words: LanthaScreen Europium Kinase Binding assay, DDR1. To be noted: 5 nM DDR1, 20 nM Kinase Tracer 178, 1 h at rt; Ki from IC50 by Cheng-Prusoff; read-out: Ki DDR1. The procedure:
as §1

Consider `O=C(Nc1cccc(C(F)(F)F)c1)NC1CC2(C1)CN(C(=O)c1cnn3cc(CNC4COC4)ccc13)C2` [Example 116, 1-(2-(6-((oxetan-3-ylamino)methyl)pyrazolo[1,5-a]pyridine-3-carbonyl)-2-azaspiro[3.3]heptan-6-yl)-3-(3-(trifluoromethyl)phenyl)urea], for which the inhibition constant Ki (as a rule, the dissociation constant of the complex between target and ligand, obtained from inhibition or displacement) on DDR2 was 5 to 25 nM; at DDR1 it was < 5 nM.
The corresponding values for `CN(C(=O)Nc1cccc(C(F)(F)C(F)(F)F)c1)C1CC2(C1)CN(C(=O)c1cnn3ccn(C)c13)C2` [Example 117, 1-methyl-1-(2-(1-methyl-1H-imidazo[1,2-b]pyrazole-7-carbonyl)-2-azaspiro[3.3]heptan-6-yl)-3-(3-(perfluoroethyl)phenyl) urea] are < 5 nM and < 5 nM.
The corresponding values for `Cn1ccn2ncc(C(=O)N3CC4(CC(NC(=O)Nc5ccc(F)c(OC(F)(F)F)c5)C4)C3)c12` [Example 118, 1-(4-fluoro-3-(trifluoromethoxy)phenyl)-3-(2-(1-methyl-1H-imidazo[1,2-b]pyrazole-7-carbonyl)-2-azaspiro[3.3]heptan-6-yl)urea] are < 5 nM and < 5 nM.
Regarding `Cn1ccn2ncc(C(=O)N3CC4(CC(NC(=O)Nc5cc(C#N)cc(S(F)(F)(F)(F)F)c5)C4)C3)c12` [Example 119, 1-(3-cyano-5-(pentafluoro-16-sulfaneyl)phenyl)-3-(2-(1-methyl-1H-imidazo[1,2-b]pyrazole-7-carbonyl)-2-azaspiro[3.3]heptan-6-yl)urea], the Ki on DDR2 and at DDR1 was < 5 nM throughout.
Turning to `O=C(Nc1cccc(S(F)(F)(F)(F)F)c1)NC1CC2(C1)CN(C(=O)c1ccnc3[nH]ncc13)C2` [Example 120, 1-(2-(1H-pyrazolo[3,4-b]pyridine-4-carbonyl)-2-azaspiro[3.3]heptan-6-yl)-3-(3-(pentafluoro-16-sulfaneyl)phenyl)urea], the Ki at DDR2 and on DDR1 was < 5 nM throughout.
Turning to `Cn1ccn2ncc(C(=O)N3CC4(CC(NC(=O)Nc5ccc(F)c(C(F)(F)F)c5)C4)C3)c12` [Example 121, 1-(4-fluoro-3-(trifluoromethyl)phenyl)-3-(2-(1-methyl-1H-imidazo[1,2-b]pyrazole-7-carbonyl)-2-azaspiro[3.3]heptan-6-yl)urea], the Ki at DDR2 was 5 to 25 nM; at DDR1, < 5 nM.
In the same order, the values of `O=C(Nc1cccc(C(F)(F)F)c1)NC1CC2(C1)CN(C(=O)c1ncnc3[nH]ncc13)C2` [Example 122, 1-(2-(1H-pyrazolo[3,4-d]pyrimidine-4-carbonyl)-2-azaspiro[3.3]heptan-6-yl)-3-(3-(trifluoromethyl)phenyl)urea] are < 5 nM and < 5 nM.
In the same order, the values of `Cn1ccn2ncc(C(=O)N3CC4(CC(NC(=O)Nc5cc(C(F)(F)F)ccc5F)C4)C3)c12` [Example 123, 1-(2-fluoro-5-(trifluoromethyl)phenyl)-3-(2-(1-methyl-1H-imidazo[1,2-b]pyrazole-7-carbonyl)-2-azaspiro[3.3]heptan-6-yl)urea] are 5 to 25 nM and < 5 nM.
For `Cn1ccn2ncc(C(=O)N3CC4(CC(NC(=O)Nc5cc(F)cc(OC(F)(F)F)c5)C4)C3)c12` [Example 124, 1-(3-fluoro-5-(trifluoromethoxy)phenyl)-3-(2-(1-methyl-1H-imidazo[1,2-b]pyrazole-7-carbonyl)-2-azaspiro[3.3]heptan-6-yl)urea], the Ki on DDR2 and at DDR1 was < 5 nM each time.
On to `Cn1ccn2ncc(C(=O)N3CC4(CC(NC(=O)Nc5cccc(SC(F)(F)F)c5)C4)C3)c12` [Example 125, 1-(2-(1-methyl-1H-imidazo[1,2-b]pyrazole-7-carbonyl)-2-azaspiro[3.3]heptan-6-yl)-3-(3-((trifluoromethyl)thio)phenyl) urea], for which the Ki at DDR2 and on DDR1 was < 5 nM in each case.
Take `Cn1ccn2ncc(C(=O)N3CC4(CC(NC(=O)Nc5cc(C(F)(F)F)ccc5OC5COC5)C4)C3)c12` [Example 126, 1-(2-(1-methyl-1H-imidazo[1,2-b]pyrazole-7-carbonyl)-2-azaspiro[3.3]heptan-6-yl)-3-(2-(oxetan-3-yloxy)-5-(trifluoromethyl)phenyl)urea]: the Ki at DDR2 is 5 to 25 nM; at DDR1 it was < 5 nM.
For `Cn1ccn2ncc(C(=O)N3CC4(CC(NC(=O)Nc5cccc(C(F)(F)C(F)(F)F)c5)C4)C3)c12` [Example 127, 1-(2-(1-methyl-1H-imidazo[1,2-b]pyrazole-7-carbonyl)-2-azaspiro[3.3]heptan-6-yl)-3-(3-(perfluoroethyl)phenyl)urea], the Ki at DDR2 and on DDR1 was < 5 nM each time.
In the case of `CN(C(=O)Nc1cccc(C(F)(F)F)c1)C1CC2(C1)CN(C(=O)c1ccnc3[nH]ncc13)C2` [Example 128, 1-(2-(1H-pyrazolo[3,4-b]pyridine-4-carbonyl)-2-azaspiro[3.3]heptan-6-yl)-1-methyl-3-(3-(trifluoromethyl)phenyl)urea], the values for the Ki at DDR2 and on DDR1 were 5 to 25 nM and < 5 nM, respectively.
The corresponding values for `CN(C(=O)Nc1cc(C(F)(F)F)ccn1)C1CC2(C1)CN(C(=O)c1cnn3ccn(C)c13)C2` [Example 129, 1-methyl-1-(2-(1-methyl-1H-imidazo[1,2-b]pyrazole-7-carbonyl)-2-azaspiro[3.3]heptan-6-yl)-3-(4-(trifluoromethyl)pyridin-2-yl)urea] are 5 to 25 nM and < 5 nM.
In the same order, the values of `CN(C(=O)Nc1cncc(C(F)(F)F)c1)C1CC2(C1)CN(C(=O)c1ncnc3ccsc13)C2` [Example 130, 1-methyl-1-(2-(thieno[3,2-d]pyrimidine-4-carbonyl)-2-azaspiro[3.3]heptan-6-yl)-3-(5-(trifluoromethyl)pyridin-3-yl)urea] are 5 to 25 nM and < 5 nM.
The corresponding values for `CN(C(=O)Nc1ccc(F)c(C(F)(F)F)c1)C1CC2(C1)CN(C(=O)c1cnn3ccn(C)c13)C2` [Example 131, 3-(4-fluoro-3-(trifluoromethyl)phenyl)-1-methyl-1-(2-(1-methyl-1H-imidazo[1,2-b]pyrazole-7-carbonyl)-2-azaspiro[3.3]heptan-6-yl)urea] are 5 to 25 nM and < 5 nM.
Consider `CN(C(=O)Nc1cc(OC(F)(F)F)ccc1F)C1CC2(C1)CN(C(=O)c1cnn3ccn(C)c13)C2` [Example 132, 3-(2-fluoro-5-(trifluoromethoxy)phenyl)-1-methyl-1-(2-(1-methyl-1H-imidazo[1,2-b]pyrazole-7-carbonyl)-2-azaspiro[3.3]heptan-6-yl)urea], for which the Ki is 5 to 25 nM at DDR2 and < 5 nM at DDR1.
The corresponding values for `CN(C(=O)Nc1cccc(C(F)(F)F)c1)C1CC2(C1)CN(C(=O)c1cnn3ccsc13)C2` [Example 133, 1-methyl-1-(2-(pyrazolo[5,1-b]thiazole-7-carbonyl)-2-azaspiro[3.3]heptan-6-yl)-3-(3-(trifluoromethyl)phenyl)urea] are 5 to 25 nM and < 5 nM.
The corresponding values for `CN(C(=O)Nc1cccc(C(F)(F)F)c1)C1CC2(C1)CN(C(=O)c1cnn3ccn(C)c13)C2` [Example 134, 1-methyl-1-(2-(1-methyl-1H-imidazo[1,2-b]pyrazole-7-carbonyl)-2-azaspiro[3.3]heptan-6-yl)-3-(3-(trifluoromethyl)phenyl)urea] are 5 to 25 nM and < 5 nM.
The corresponding values for `O=C(Nc1cccc(C(F)(F)F)c1)NC1CC2(C1)CN(C(=O)c1cnn3c1SCC3)C2` [Example 135, 1-(2-(2,3-dihydropyrazolo[5,1-b]thiazole-7-carbonyl)-2-azaspiro[3.3]heptan-6-yl)-3-(3-(trifluoromethyl)phenyl)urea] are 5 to 25 nM and < 5 nM.
As for `O=C(Nc1cccc(C(F)(F)F)c1)NC1CC2(C1)CN(C(=O)c1cnn3c1SCCC3)C2` [Example 136, 1-(2-(6,7-dihydro-5H-pyrazolo[5,1-b][1,3]thiazine-3-carbonyl)-2-azaspiro[3.3]heptan-6-yl)-3-(3-(trifluoromethyl)phenyl)urea], the Ki at DDR2 was 5 to 25 nM; at DDR1 it was < 5 nM.
`O=C(Nc1cccc(C(F)(F)F)c1)NC1CC2(C1)CN(C(=O)c1ccnc3ccsc13)C2` [Example 137, 1-(2-(thieno[3,2-b]pyridine-7-carbonyl)-2-azaspiro[3.3]heptan-6-yl)-3-(3-(trifluoromethyl)phenyl)urea]: the Ki on DDR2 and on DDR1 was < 5 nM in each case.
